Results on 21 compounds are retold here after patent US7294625B2, “Pyrazole compounds” (Ube Industries, Ltd., priority 2002, dated 2007).

Each structure is given as a SMILES string. pIC50: −log10 of the molar value.

The first experiment deals with cytokine (IL-1β and TNF-α) induced IL-6 production. Description: Inhibition of IL-6 production in rat (in vivo). As to conditions: LEW rats, 3 mg/Kg oral, 1 hour before IL-1β/TNF-α i.v., serum IL-6 two hours later. On the procedure:
Test Example 3 Inhibition of IL-6 Production in Rat (In Vivo)
A cytokine mixed solution of IL-1β and TNF-α was intravenously injected to rats to induce production of IL-6. A mixed solution of IL-1β (available from R&D) (4 μg/ml) and TNF-α (available from R&D) (2 μg/ml) dissolved in PBS was administered to tail vein of LEW series rats (female, body weight: about 140 to 170 g, available from Charles River Japan, Inc.) fasted overnight with a ratio of 1 ml/kg of the body weight. Two hours later, blood was collected from the neck vein under ether anesthesia. The collected blood was centrifuged under the conditions of 20° C. and 10,000×g to separate serum. IL-6 concentration in the serum was measured by using an enzyme-linked immunosorbent assay (ELISA) kit (IL-6 ELISA KIT, available from R&D).
The test compound or the vehicle was orally administered with a dose of 10 ml/kg of the body weight before 1 hour of the injection of the cytokine mixed solution. The control group to which the vehicle was administered and the group of the compound to be tested were each 5 rats per group. An inhibitory ratio of the group of the compound to be tested based on control group was calculated.
Regarding `O=C1CCC(n2cc(-c3ccnc(NCC(F)(F)F)c3)c(-c3ccc(F)cc3)n2)=NN1` [Example 56, 3-(4-Fluorophenyl)-1(1,4,5,6-tetrahydro-6-oxopyridazin-3-yl)-4-[2-(2,2,2-trifluoroethyl)aminopyridin-4-yl]-1H-pyrazole], the “Rat cytokine induced IL-6 production inhibiting ratio (%) @3 mg/Kg” value came out at 85%.

In the next experiment the target is T1, p38MAP kinase (Homo sapiens, UniProt Q16539).
T1 construct: purchased Stratagene (p38MAP kinase); Upstate (SKK/MKK6) #206145 (p38MAP kinase); #14-225 or #14-303 (SKK/MKK6)
T1 sequence (Q16539 whole entry): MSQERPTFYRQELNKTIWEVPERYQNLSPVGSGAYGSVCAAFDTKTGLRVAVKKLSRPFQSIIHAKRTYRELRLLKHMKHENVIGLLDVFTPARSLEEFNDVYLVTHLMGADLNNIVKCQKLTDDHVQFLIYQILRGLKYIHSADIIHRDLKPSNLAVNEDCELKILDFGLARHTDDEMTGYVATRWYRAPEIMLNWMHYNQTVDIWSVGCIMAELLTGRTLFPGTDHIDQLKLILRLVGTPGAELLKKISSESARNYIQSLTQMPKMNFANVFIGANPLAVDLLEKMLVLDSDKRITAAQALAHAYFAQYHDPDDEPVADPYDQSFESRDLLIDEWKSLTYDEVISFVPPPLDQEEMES
The experiment is described as follows: Enzyme inhibitory test against p38MAP kinase. The format is biochemical. As to conditions: active type p38MAP kinase, EGFR peptide substrate, [γ-32P]ATP, 30° C. 30 minutes; read-out: p38MAP kinase inhibition IC50 value. On the procedure: Test Example 1 Enzyme Inhibitory Test Against p38MAP Kinase
(1) Preparatoin of Active Type p38MAP Kinase
An active type p38MAP kinase was prepared by incubation in a reaction solution (25 mM Tris-HCl pH 7.5, 5 mM β-glycerolphosphate, 2 mM DTT, 0.1 mM […], 10 mM MgCl2, 1 mM ATP) containing p38MAP kinase (Stratagene, #206145) and SKK/MKK6 (Upstate, #14-225 or #14-303) at 30° C. for 1 to 3 hours. This enzyme solution was diluted 5 to 10-fold with Stock Buffer (50 mM Tris-HCl pH 7.5, 0.1 mM EGTA, 0.2 mM Orthovanadate, 0.1% 2-ME, 10% glycerol, 0.03% Brij-35, 0.5 μM Microcystin), and preserved under freezing (−80° C.).
(2) Measurement of Inhibitory Activity of p38MAP Kinase
To 34 μL of a reaction solution (25 mM HEPES, pH 7.5, 10 mM Magnesium acetate) containing the active type p38MAP kinase prepared as mentioned above and a substrate (final concentration: […] EGFR; […]) was added 1 μL of DMSO, or a compound to be tested and dissolved in DMSO, then, the mixture was subjected to preincubation at 4° C. for 30 minutes. A reaction was started by adding 5 μL of an ATP solution (400 μM ATP, 1 μCi/μL [γ-^32P]ATP), and reacted at 30° C. for 30 minutes, and then, the reaction was stopped by adding 5 μL of 250 mM H3PO4. 25 μL of the reaction solution was placed on chromatography paper (Whatman, #P81), dried for about 2 minutes, and washed with 75 mM H3PO4. Water was removed by using 95% ethanol, it was transferred to a bial containing liquid scintillation cocktail (available from Nacalai Tesque), and radioactivity was measured. A concentration (IC50 value) of a compound to be tested necessary for inhibiting 50% of phosphrylation (^32P) of the substrate by the enzyme was calculated as compared to that non-treated by the compound to be tested by XL-fit (available from IDBS).
As a reminder, the pIC50 is the negative decadic logarithm of the IC50, by convention in mol/L. In the case of `Nc1cc(-c2cn(-c3ccc4nncn4n3)nc2-c2ccc(F)c(F)c2)ccn1` [Example 40, 4-(2-Aminopyridin-4-yl)-3-(3,4-difluorophenyl)-1-([1,2,4]triazolo[4,3-b]pyridazin-6-yl)-1H-pyrazole], the pIC50 is 8.06.

With `O=c1ccc(-n2cc(-c3ccncc3)c(-c3ccc(F)cc3)n2)n[nH]1` [Example 1, 3-(4-Fluorophenyl)-1-(1,6-dihydro-6-oxopyridazin-3-yl)-4-(pyridin-4-yl)-1H-pyrazole], the pIC50 was 8.05.

With `CCNc1cc(-c2cn(-c3ccc(=O)[nH]n3)nc2-c2ccc(F)cc2)ccn1` [Example 27, 4-(2-Ethylaminopyridin-4-yl)-3-(4-fluorophenyl)-1-(1,6-dihydro-6-oxopyridazin-3-yl)-1H-pyrazole], the pIC50 was 8.89.

Take `COC(=O)Nc1cc(-c2cn(-c3ccc4nncn4n3)nc2-c2ccc(F)cc2)ccn1` [Example 11, 3-(4-Fluorophenyl)-4-(2-methoxycarbonylaminopyridin-4-yl)-1-([1,2,4]triazolo[4,3-b]pyridazin-6-yl)-1H-pyrazole]: the pIC50 is 8.21.

On to `Nc1cc(-c2cn(-c3ccc(=O)[nH]n3)nc2-c2cccc(C(F)(F)F)c2)ccn1` [Example 25, 4-(2-Aminopyridin-4-yl)-1-(1,6-dihydro-6-oxopyridazin-3-yl)-3-(3-trifluoromethylphenyl)-1H-pyrazole], for which the pIC50 is 8.23.

Turning to `O=c1ccc(-n2cc(-c3ccnc(NCC(F)(F)F)c3)c(-c3ccccc3F)n2)n[nH]1` [Example 34, 3-(2-Fluorophenyl)-1-(1,6-dihydro-6-oxopyridazin-3-yl)-4-[2-(2,2,2-trifluoroethyl)aminopyridin-4-yl]-1H-pyrazole], the negative logarithm of the IC50 (pIC50) was 9.70.

In the case of `Nc1cc(-c2cn(-c3ccc(=O)[nH]n3)nc2-c2cccc(F)c2)ccn1` [Example 22, 4-(2-Aminopyridin-4-yl)-3-(3-fluorophenyl)-1-(1,6-dihydro-6-oxopyridazin-3-yl)-1H-pyrazole], the pIC50 was 8.18.

For the compound `O=C(Nc1cc(-c2cn(-c3ccc4nncn4n3)nc2-c2ccc(F)cc2)ccn1)C1CCCC1` [Example 45, 4-(2-Cyclopentylcarbonylaminopyridin-4-yl)-3-(4-fluorophenyl)-1-([1,2,4]triazolo[4,3-b]pyridazin-6-yl)-1H-pyrazole], the negative logarithm of the IC50 (pIC50) is 8.31.

As for `Nc1cc(-c2cn(-c3cc(N)c(=O)[nH]n3)nc2-c2ccc(F)cc2)ccn1` [Example 4, 1-(5-Amino-1,6-dihydro-6-oxopyridazin-3-yl)-4-(2-aminopyridin-4-yl)-3-(4-fluorophenyl)-1H-pyrazole], the pIC50 is 8.60.

Take `CC(Nc1cc(-c2cn(-c3ccc4nncn4n3)nc2-c2ccc(F)cc2)ccn1)c1ccccc1` (stereo not shown) [Example 18, 3-(4-Fluorophenyl)-4-[2-(1-phenethylamino)pyridin-4-yl]-1-([1,2,4]triazolo[4,3-b]pyridazin-6-yl)-1H-pyrazole]: the pIC50 is 8.43.

Take `CC(=O)Nc1cc(-c2cn(-c3ccc4nncn4n3)nc2-c2ccc(F)cc2)ccn1` [Example 9, 4-(2-Acetylaminopyridin-4-yl)-3-(4-fluorophenyl)-1-([1,2,4]triazolo[4,3-b]pyridazin-6-yl)-1H-pyrazole]: the pIC50 was 8.27.

As for `CC(=O)Nc1cc(-c2cn(C3=NNC(=O)CC3)nc2-c2ccc(F)cc2)ccn1` [Example 57, 4-(2-Acetylaminopyridin-4-yl)-3-(4-fluorophenyl)-1-(1,4,5,6-tetrahydro-6-oxopyridazin-3-yl)-1H-pyrazole], the pIC50 was 8.68.

Turning to `CC(=O)Nc1cc(-c2cn(C3=NNC(=O)CC3)nc2-c2ccccc2F)ccn1` [Example 62, 4-(2-Acetylaminopyridin-4-yl)-3-(2-fluorophenyl)-1-(1,4,5,6-tetrahydro-6-oxopyridazin-3-yl)-1H-pyrazole], the pIC50 is 8.89.

On to `Cc1cc(-n2cc(-c3ccnc(N)c3)c(-c3ccc(F)cc3)n2)n[nH]c1=O` [Example 32, 4-(2-Aminopyridin-4-yl)-3-(4-fluorophenyl)-1-(1,6-dihydro-5-methyl-6-oxopyridazin-3-yl)-1H-pyrazole], for which the pIC50 is 8.47.

For a further experiment, the system named is LPS-induced TNF-α production in human PBMC. Description: Inhibition of TNF-α production in human PBMC (in vitro). The format is cell-based. Particulars: LPS 10 μg/ml, 18 hours, TNF-α ELISA, read-out: Inhibitory effect on LPS-induced TNF-α production in human PBMC IC50 value. On the procedure:
Test Example 2 Inhibition of TNF-α Production in Human PBMC (In Vitro)
Test was carried out according to the method of Welker et al. (Int. Arch. Allergy Immunol., 109, 110-115 (1996).
Heparin-added blood collected from healthy volunteer with consent was underlayed with a specific gravity-separating solution (Lymphoprep; available from Daiichi Pure Chemicals Co., Ltd.), subjected to centrifugation (800×g, 25 minutes), and a mononuclear cell layer was recovered. The obtained mononuclear cells (human PBMC) were washed twice with PBS (available from SIGMA), and resuspended in 1% FCS-containing RPMI aqueous solution (available from GIBCO) so that the cells became 5×10^6 cells/mL. The thus obtained cell suspension was diluted 10-fold with 1% FCS-containing RPMI medium, DMSO (or the compound to be tested) with a final concentration of 0.5% was added thereto, and cultured at 37° C. in 5% CO2 for 1 hour. After that, LPS (derived from E. Coli 055:5B, available from SIGMA) solution prepared by PBS was added so that the final concentration thereof being 10 μg/ml, and cultivation was carried out for further 18 hours. After the cultivation, culture medium was subjected to centrifugation (800×g, 10 minutes), and a concentration of TNF-α produced in the supernatant was measured by an enzyme-linked immunosorbent assay (ELISA) kit (TNF-α ELISA Kit, available from R&D). The concentration (IC50 value) of the test compound for inhibiting 50% of TNF-α production was calcualted by using XL-fit (available from IDBS).
In general terms: In an ELISA, binding on a coated surface is turned into a signal by an enzyme label.
With `O=c1ccc(-n2cc(-c3ccnc(NCC(F)(F)F)c3)c(-c3ccc(F)cc3)n2)n[nH]1` [Example 28, 3-(4-fluorophenyl)-1-(1,6-dihydro-6-oxopyridazin-3-yl)-4-[2-(2,2,2-trifluoroethyl)aminopyridin-4-yl]-1H-pyrazole], the pIC50 was 8.15.

Take `O=C1CCC(n2cc(-c3ccnc(NCC(F)(F)F)c3)c(-c3ccccc3F)n2)=NN1` [Example 61, 3-(2-Fluorophenyl)-1-(1,4,5,6-tetrahydro-6-oxopyridazin-3-yl)-4-[2-(2,2,2-trifluoroethyl)aminopyridin-4-yl]-1H-pyrazole]: the pIC50 is 8.40.

Turning to `O=C(Nc1cc(-c2cn(-c3ccc4nncn4n3)nc2-c2ccc(F)cc2)ccn1)C1CC1` [Example 43, 4-(2-Cyclopropylcarbonylaminopyridin-4-yl)-3-(4-fluorophenyl)-1-([1,2,4]triazolo[4,3-b]pyridazin-6-yl)-1H-pyrazole], the pIC50 was 7.85.

Consider `Nc1cc(-c2cn(-c3cc(N)c(=O)[nH]n3)nc2-c2ccc(F)cc2)ccn1` [Example 4, 1-(5-Amino-1,6-dihydro-6-oxopyridazin-3-yl)-4-(2-aminopyridin-4-yl)-3-(4-fluorophenyl)-1H-pyrazole], for which the pIC50 was 7.55.

As to `O=C1CCC(n2cc(-c3ccnc(NC(=O)C4CC4)c3)c(-c3ccccc3F)n2)=NN1` [Example 65, 4-(2-Cyclopropylcarbonylaminopyridin-4-yl)-3-(2-fluorophenyl)-1-(1,4,5,6-tetrahydro-6-oxopyridazin-3-yl)-1H-pyrazole], the pIC50 is 7.82.

Turning to `CC(=O)Nc1cc(-c2cn(-c3ccc(=O)[nH]n3)nc2-c2ccccc2F)ccn1` [Example 35, 4-(2-Acetylaminopyridin-4-yl)-3-(2-fluorophenyl)-1-(1,6-dihydro-6-oxopyridazin-3-yl)-1H-pyrazole], the pIC50 was 8.22.

As to `Nc1cc(-c2cn(C3=NNC(=O)CC3)nc2-c2ccccc2F)ccn1` [Example 55, 4-(2-Aminopyridin-4-yl)-3-(2-fluorophenyl)-1-(1,4,5,6-tetrahydro-6-oxopyridazin-3-yl)-1H-pyrazole], the negative logarithm of the IC50 (pIC50) is 7.44.
